Like-named read-outs stand apart in the source and are kept apart here.
Key:
[1] = biological target: SNAP-D2SR L54^1.52A (Homo sapiens, UniProt P14416, L54A); test: cell membrane [3H]spiperone assay
Procedure: Flp-In-CHO cells stably expressing the wild-type or mutant DRs were grown to 90% confluence in 175 cm^2 cell culture flasks. The cells were harvested in PBS containing 2 mM EDTA and centrifuged at 300g for 3 min. The resulting pellet was resuspended in ice-cold assay buffer (20 mM HEPES, 100 mM NaCl, 6 mM MgCl2, 1 mM EGTA, and 1 mM EDTA, pH 7.4), and the centrifugation step was repeated. The intact cell pellet was then resuspended in assay buffer and homogenized using a Polytron homogenizer. After centrifugation (1000g, 10 min), the pellet was discarded, and the supernatant was recentrifuged at 30,000g for 1 h at 4 °C using a Sorvall Evolution RC ultracentrifuge (Thermo Scientific). The resulting pellet was resuspended in assay buffer and stored in 250 μL aliquots at −80 °C. Membrane protein concentration was determined using a Pierce’s BCA protein assay kit (Thermo Fisher, Melbourne).
[^3H]­Spiperone binding experiments using cell membranes were conducted in a 200 μL reaction volume in assay buffer (20 mM HEPES, 100 mM NaCl, 6 mM MgCl2, 1 mM EGTA, and 1 mM EDTA, pH 7.4) containing 100 μM GppNHp and 0.1% ascorbic acid in 96-well plates. […] In all cases, nonspecific binding was determined in the presence of 10 μM haloperidol. […] Filter bound radioactivity was detected as a chemiluminescence after the addition of MicroScint-20 (Revvity) in a MicroBeta plate counter (Revvity). […]

[2] = test system: 6-OHDA contralateral turning model; conditions: with subeffective dose of L-DOPA; earlier report, reference number not given; cited from earlier work
[3] = biological target: T1, SNAP-D2SR C118^3.36A (Homo sapiens, UniProt P14416, C118A); test: functional cAMP assay, BRET biosensor; format: cell-based
T1 sequence (P14416 1-414 isoform P14416-2 C118A): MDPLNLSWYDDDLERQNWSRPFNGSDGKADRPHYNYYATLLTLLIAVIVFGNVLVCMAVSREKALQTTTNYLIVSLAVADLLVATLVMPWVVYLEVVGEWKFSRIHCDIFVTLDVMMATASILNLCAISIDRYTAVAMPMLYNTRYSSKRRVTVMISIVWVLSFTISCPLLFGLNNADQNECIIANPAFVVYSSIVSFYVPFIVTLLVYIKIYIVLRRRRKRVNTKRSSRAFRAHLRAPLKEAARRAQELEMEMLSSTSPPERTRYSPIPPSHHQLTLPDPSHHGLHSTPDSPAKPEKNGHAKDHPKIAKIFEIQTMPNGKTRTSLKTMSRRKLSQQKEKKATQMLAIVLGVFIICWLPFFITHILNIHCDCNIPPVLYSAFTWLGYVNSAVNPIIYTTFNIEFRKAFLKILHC
Procedure: (§1) Flp-In-CHO cells stably coexpressing the CAMYEL biosensor and DRs were plated into white 96-well CulturPlates (Revvity) and grown overnight. The cells were equilibrated in Hank’s balanced salt solution (HBSS) at 37 °C (or 25 °C when indicated) before starting the experiment. The cells were costimulated with the agonists and 10 μM forskolin for the indicated time frames when the BRET readings were captured. Coelenterazine (Nanolight Technology, AZ) was added at a final concentration of 5 μM at least 3 min prior to measurement. […] Net BRET was determined by subtraction of the vehicle control coadded with 10 μM forskolin.
(§2) Dose–response curves were fitted using the following three-parameter equation: response=bottom+top−bottom/1+10^(logEC50−log[A]) 5 where top and bottom represent the maximal and minimal asymptote of the dose response curve, [A] is the molar concentration of the agonist, and EC50 is the molar concentration of the agonist required to give a response half-way between bottom and top.

[4] = biological target: SNAP-D2SR F50^1.48A (Homo sapiens, UniProt P14416, F50A); test: functional cAMP assay, BRET biosensor; format: cell-based; parameters: expressed in transfected cells
Sequence of SNAP-D2SR F50^1.48A (P14416 1-414 isoform P14416-2 F50A): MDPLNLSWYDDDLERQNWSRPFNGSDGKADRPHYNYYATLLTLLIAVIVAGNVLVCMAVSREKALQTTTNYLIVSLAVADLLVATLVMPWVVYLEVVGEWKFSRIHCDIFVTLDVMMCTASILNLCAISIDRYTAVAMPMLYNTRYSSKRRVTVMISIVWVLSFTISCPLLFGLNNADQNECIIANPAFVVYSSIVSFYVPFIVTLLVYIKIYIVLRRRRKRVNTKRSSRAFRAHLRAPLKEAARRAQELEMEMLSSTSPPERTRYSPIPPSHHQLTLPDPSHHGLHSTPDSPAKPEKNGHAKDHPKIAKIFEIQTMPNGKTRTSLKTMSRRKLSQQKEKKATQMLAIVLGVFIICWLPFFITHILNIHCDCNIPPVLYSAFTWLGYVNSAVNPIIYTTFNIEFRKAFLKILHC
Procedure: as §1, §2

[5] = biological target: D2LR (Homo sapiens, UniProt P14416); test: whole cell [3H]raclopride binding assay
Sequence of D2LR (P14416 whole entry): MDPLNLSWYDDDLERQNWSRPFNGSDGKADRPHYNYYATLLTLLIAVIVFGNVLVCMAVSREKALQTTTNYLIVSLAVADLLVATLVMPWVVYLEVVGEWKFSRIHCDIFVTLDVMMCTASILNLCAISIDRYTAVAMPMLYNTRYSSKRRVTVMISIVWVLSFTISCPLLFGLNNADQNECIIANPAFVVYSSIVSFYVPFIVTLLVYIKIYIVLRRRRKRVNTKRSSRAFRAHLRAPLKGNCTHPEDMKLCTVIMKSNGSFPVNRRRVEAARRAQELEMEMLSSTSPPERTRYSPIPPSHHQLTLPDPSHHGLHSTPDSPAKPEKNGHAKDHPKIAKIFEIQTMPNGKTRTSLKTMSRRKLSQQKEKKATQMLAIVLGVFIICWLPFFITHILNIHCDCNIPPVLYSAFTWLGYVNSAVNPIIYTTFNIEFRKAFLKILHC
Procedure: The binding reaction was conducted in HBSS for 1 h at 37 °C. The adherent cells were washed two times with cold 0.9% NaCl solution, and 100 μL/well scintilation liquid was added to the plate. The remaining radioactivity was detected in a MicroBeta counter.

[6] = read-out: D2 PAM2 KB (converted)
[7] = cooperativity with [3H]raclopride
[8] = cooperativity with aripiprazole
[9] = cooperativity with bromocriptine
[10] = orthosteric ligand [3H]raclopride
[11] = orthosteric ligand aripiprazole
[12] = orthosteric ligand bromocriptine
[13] = titration of D2 PAM2 vs [3H]raclopride
[14] = titration, cooperativity with [3H]raclopride

Sequence of SNAP-D2SR L54^1.52A (P14416 1-414 isoform P14416-2 L54A): as the sequence (P14416 1-414 isoform P14416-2 F50A) above, with A50F, L54A counted along it

COc1cc(CO)c(F)cc1C(=O)n1ccc2c(F)cccc21 [D2 PAM2, [5-fluoro-4-(hydroxymethyl)-2-methoxyphenyl]-(4-fluoro-1H-indol-1-yl)methanone]
fold shift + 10 μM PAM ([1]; shift of DA IC50): 1.3 fold | ΔpIC50 + 10 μM PAM ([1]; shift of DA pIC50): 0.10 ± 0.11 | effect on L-DOPA in a rodent model of Parkinson's disease [2]: potentiate a subeffective dose of L-DOPA | D2 PAM2 log τ [3]: –0.24 ± 0.05 | D2 PAM2 pKB [3]: 4.82 ± 0.15 | D2 PAM2 τ [3]: 0.57 | Kb [3, 6]: 15 µM | D2 PAM2 log αβ ([3]; with DA): 1.30 ± 0.13 | D2 PAM2 αβ ([3]; with DA): 20 | D2 PAM2 log τ [4]: –1.35 ± 0.22 | D2 PAM2 pKB [4]: 5.32 ± 0.28 | D2 PAM2 τ [4]: 0.04 | fold decrease in cooperativity with DA ([4]; cAMP): 7 fold | Kb [4, 6]: 5 µM | D2 PAM2 log αβ ([4]; with DA): 0.39 ± 0.07 | D2 PAM2 αβ ([4]; with DA): 2.5 | fold inhibition of [3H]raclopride affinity [5]: 2.43 fold | Logα ([5]; cooperativity with S-(3)-PPP): 0.40 ± 0.11 | α ([5]; cooperativity with S-(3)-PPP): 2.5 | Logα [5, 7]: -0.39 ± 0.12 | α [5, 7]: −0.39 | α ([5]; cooperativity with [3H]raclopride, listed as D2 PAM): 0.41 | Logα ([5]; cooperativity with apomorphine): 1.05 ± 0.11 | α ([5]; cooperativity with apomorphine): 11 | Logα [5, 8]: 0.43 ± 0.10 | α [5, 8]: 2.7 | Logα [5, 9]: 0.27 ± 0.07 | α [5, 9]: 1.9 | Logα ([5]; cooperativity with dopamine): 1.33 ± 0.10 | α ([5]; cooperativity with dopamine): 22 | α ([5]; cooperativity with dopamine, listed as D2 PAM): 21 | Logα ([5]; cooperativity with lisuride): 0.55 ± 0.04 | α ([5]; cooperativity with lisuride): 3.5 | Logα ([5]; cooperativity with pergolide): 1.24 ± 0.14 | α ([5]; cooperativity with pergolide): 17 | Logα ([5]; cooperativity with pramipexole): 1.21 ± 0.11 | α ([5]; cooperativity with pramipexole): 16 | Logα ([5]; cooperativity with ropirinole): 1.14 ± 0.11 | α ([5]; cooperativity with ropirinole): 14 | Logα ([5]; cooperativity with rotigotine): 1.37 ± 0.09 | α ([5]; cooperativity with rotigotine): 23 | Kb ([5]; orthosteric ligand S-(3)-PPP): 5.12 µM | pKB ([5]; orthosteric ligand S-(3)-PPP): 5.29 ± 0.05 | Kb [5, 10]: 5.5 µM | pKB [5, 10]: 5.26 ± 0.10 | Kb ([5]; orthosteric ligand apomorphine): 6.31 µM | pKB ([5]; orthosteric ligand apomorphine): 5.20 ± 0.10 | Kb [5, 11]: 7.24 µM | pKB [5, 11]: 5.14 ± 0.04 | Kb [5, 12]: 8.12 µM | pKB [5, 12]: 5.09 ± 0.13 | Kb ([5]; orthosteric ligand dopamine): 5.5 µM | pKB ([5]; orthosteric ligand dopamine): 5.26 ± 0.10 | Kb ([5]; orthosteric ligand lisuride): 5.62 µM | pKB ([5]; orthosteric ligand lisuride): 5.25 ± 0.07 | Kb ([5]; orthosteric ligand pergolide): 8.32 µM | pKB ([5]; orthosteric ligand pergolide): 5.08 ± 0.10 | Kb ([5]; orthosteric ligand pramipexole): 6.92 µM | pKB ([5]; orthosteric ligand pramipexole): 5.16 ± 0.11 | Kb ([5]; orthosteric ligand ropirinole): 8.71 µM | pKB ([5]; orthosteric ligand ropirinole): 5.06 ± 0.06 | Kb ([5]; orthosteric ligand rotigotine): 4.68 µM | pKB ([5]; orthosteric ligand rotigotine): 5.33 ± 0.14 | Kb ([5]; read-out: Kb, affinity for the unoccupied receptor, DA competition, allosteric ternary complex model): 5.5 µM | Kb [5, 13]: 5.5 µM | pKb [5, 13]: 5.26 | Logα [5, 14]: -0.37 | α [5, 14]: 0.43

From PMC12186844 (ACS Chemical Neuroscience, 2025)
